Test results taken from ChEMBL document CHEMBL1123958, “Synthesis and antiviral properties of (E)-5-(2-bromovinyl)-2'-deoxycytidine-related compounds” (J Med Chem, 1988).

Key:
Human alphaherpesvirus 2 [1] = assay: Concentration required to reduce HSV-2 virus induced cytopathogenicity in rabbit cell kidney culture (196 cells); format: functional, organism-based
Human alphaherpesvirus 2 [2] = assay: Concentration required to reduce HSV-2 virus induced cytopathogenicity in rabbit cell kidney culture (G cells); format: functional, organism-based
Human alphaherpesvirus 2 [3] = assay: Concentration required to reduce HSV-2 virus induced cytopathogenicity in rabbit cell kidney culture (Lyons cells); format: functional, organism-based
Human alphaherpesvirus 1 [4] = assay: Concentration required to reduce HSV-1 virus induced cytopathogenicity in rabbit cell kidney culture (F cells); format: functional, organism-based
Human alphaherpesvirus 1 [5] = assay: Concentration required to reduce HSV-1 virus induced cytopathogenicity in rabbit cell kidney culture (KOS cells); format: functional, organism-based
Human alphaherpesvirus 1 [6] = assay: Concentration required to reduce HSV-1 virus induced cytopathogenicity in rabbit cell kidney culture (McIntyre cells); format: functional, organism-based
[7] = system: Vesicular stomatitis virus; assay: Concentration required to reduce vesicular stomatitis virus induced cytopathogenicity in rabbit cell kidney culture; format: functional, organism-based
Oryctolagus cuniculus [8] = organism: Oryctolagus cuniculus; assay: Minimum cytotoxic concentration causing microscopically detectable alteration of normal cell morphology of rabbit kideny cells; format: functional; parameters: unit not given here
Oryctolagus cuniculus [9] = organism: Oryctolagus cuniculus; assay: Minimum cytotoxic concentration causing microscopically detectable alteration of normal cell morphology of rabbit kidney cells; format: functional

`CC(=O)OC[C@H]1O[C@@H](n2cc(C)c(-n3cncn3)nc2=O)C[C@@H]1OC(C)=O` was tested, and the Concentration (Human alphaherpesvirus 2 [1]) was greater than 40 µg/mL, the Concentration (Human alphaherpesvirus 2 [2]) was greater than 40 µg/mL and the Concentration (Human alphaherpesvirus 2 [3]) was greater than 40 µg/mL. For the same molecule, the Concentration (Human alphaherpesvirus 1 [4]) was greater than 40 µg/mL, the Concentration (Human alphaherpesvirus 1 [5]) was greater than 40 µg/mL and the Concentration (Human alphaherpesvirus 1 [6]) was greater than 40 µg/mL. It also gave a Concentration [7] greater than 40 µg/mL.
With `O=c1nc(-n2cncn2)c(/C=C/Br)cn1C1CC(O)C(CCl)O1` (stereo not drawn) the Concentration (Human alphaherpesvirus 2 [1]) was greater than 100 µg/mL, the Concentration (Human alphaherpesvirus 2 [2]) was greater than 100 µg/mL and the Concentration (Human alphaherpesvirus 2 [3]) was greater than 100 µg/mL. It also gave a Concentration (Human alphaherpesvirus 1 [4]) greater than 100 µg/mL, a Concentration (Human alphaherpesvirus 1 [5]) of 70 µg/mL and a Concentration (Human alphaherpesvirus 1 [6]) greater than 100 µg/mL. The MCC (Oryctolagus cuniculus [8]) was greater than 100 and the Concentration [7] was greater than 100 µg/mL.
`CC(=O)OC[C@H]1O[C@@H](n2cc(/C=C/Br)c(=O)[nH]c2=O)C[C@@H]1OC(C)=O` was tested, and the Concentration (Human alphaherpesvirus 2 [1]) was 100 µg/mL, the Concentration (Human alphaherpesvirus 2 [2]) was 20 µg/mL and the Concentration (Human alphaherpesvirus 2 [3]) was 40 µg/mL. For the same molecule, the Concentration (Human alphaherpesvirus 1 [4]) was 0.1 µg/mL, the Concentration (Human alphaherpesvirus 1 [5]) was 0.1 µg/mL and the Concentration (Human alphaherpesvirus 1 [6]) was 0.2 µg/mL. For the same molecule, the MCC (Oryctolagus cuniculus [8]) was greater than 300 and the Concentration [7] was greater than 300 µg/mL.
`Cc1cn(C2CC(O)C(CCl)O2)c(=O)nc1-n1cncn1` (stereo not drawn) gave a Concentration (Human alphaherpesvirus 2 [1]) greater than 10 µg/mL, a Concentration (Human alphaherpesvirus 2 [2]) greater than 10 µg/mL and a Concentration (Human alphaherpesvirus 2 [3]) greater than 10 µg/mL. It also gave a Concentration (Human alphaherpesvirus 1 [4]) greater than 10 µg/mL, a Concentration (Human alphaherpesvirus 1 [5]) greater than 10 µg/mL and a Concentration (Human alphaherpesvirus 1 [6]) greater than 10 µg/mL. The MCC (Oryctolagus cuniculus [8]) was greater than 10 and the Concentration [7] was greater than 10 µg/mL.
For `Nc1nc(=O)n([C@H]2C[C@H](O)[C@@H](CO)O2)cc1/C=C/Br`, the Concentration (Human alphaherpesvirus 2 [1]) was greater than 400 µg/mL, the Concentration (Human alphaherpesvirus 2 [2]) was 20 µg/mL and the Concentration (Human alphaherpesvirus 2 [3]) was greater than 400 µg/mL. For the same molecule, the Concentration (Human alphaherpesvirus 1 [4]) was 0.2 µg/mL, the Concentration (Human alphaherpesvirus 1 [5]) was 0.1 µg/mL and the Concentration (Human alphaherpesvirus 1 [6]) was 0.2 µg/mL. The MCC (Oryctolagus cuniculus [8]) was greater than 400 and the Concentration [7] was greater than 400 µg/mL.
In the case of `O=c1[nH]c(=O)n([C@H]2C[C@H](O)[C@@H](CO)O2)cc1/C=C/Br` [BRIVUDINE], the Concentration (Human alphaherpesvirus 2 [1]) is reported as 30 µg/mL, the Concentration (Human alphaherpesvirus 2 [2]) is reported as 2 µg/mL and the Concentration (Human alphaherpesvirus 2 [3]) is reported as 7 µg/mL. For the same molecule, the Concentration (Human alphaherpesvirus 1 [4]) was 0.02 µg/mL, the Concentration (Human alphaherpesvirus 1 [5]) was 0.02 µg/mL and the Concentration (Human alphaherpesvirus 1 [6]) was 0.02 µg/mL. The MCC (Oryctolagus cuniculus [9]) was greater than 400 and the Concentration [7] was greater than 400 µg/mL.
Work on `O=c1nc(-n2cncn2)c(/C=C/Br)cn1[C@H]1C[C@H](O)[C@@H](CO)O1` yielded a Concentration (Human alphaherpesvirus 2 [1]) greater than 200 µg/mL, a Concentration (Human alphaherpesvirus 2 [2]) of 20 µg/mL and a Concentration (Human alphaherpesvirus 2 [3]) of 70 µg/mL. For the same molecule, the Concentration (Human alphaherpesvirus 1 [4]) was 0.07 µg/mL, the Concentration (Human alphaherpesvirus 1 [5]) was 0.07 µg/mL and the Concentration (Human alphaherpesvirus 1 [6]) was 0.1 µg/mL. For the same molecule, the Concentration [7] was greater than 200 µg/mL.
For `CC(=O)OC[C@H]1O[C@@H](n2cc(/C=C/Br)c(-n3cncn3)nc2=O)C[C@@H]1OC(C)=O`, the Concentration (Human alphaherpesvirus 2 [1]) was 20 µg/mL, the Concentration (Human alphaherpesvirus 2 [2]) was 20 µg/mL and the Concentration (Human alphaherpesvirus 2 [3]) was 20 µg/mL. The Concentration (Human alphaherpesvirus 1 [4]) was 0.2 µg/mL, the Concentration (Human alphaherpesvirus 1 [5]) was 0.1 µg/mL and the Concentration (Human alphaherpesvirus 1 [6]) was 0.07 µg/mL. The Concentration [7] was greater than 200 µg/mL.
For `Cc1cn([C@H]2C[C@H](O)[C@@H](CO)O2)c(=O)nc1-n1cncn1`, the Concentration (Human alphaherpesvirus 2 [1]) was 20 µg/mL, the Concentration (Human alphaherpesvirus 2 [2]) was 20 µg/mL and the Concentration (Human alphaherpesvirus 2 [3]) was 20 µg/mL. The Concentration (Human alphaherpesvirus 1 [4]) was greater than 40 µg/mL, the Concentration (Human alphaherpesvirus 1 [5]) was greater than 40 µg/mL and the Concentration (Human alphaherpesvirus 1 [6]) was 20 µg/mL. The Concentration [7] was greater than 40 µg/mL.
